According to patent US20050250818A1, “Ortho substituted aryl or heteroaryl amide compounds” (Pfizer Inc, priority 2004, published 2005):

target: T1, human EP4 receptors (Homo sapiens, UniProt P35408); assay: cAMP assay in human EP4 transfectant; format: cell-based; details: HEK293 cells expressing human EP4 receptors; 1 nM PGE2, 0.2 mM IBMX, 37° C. for 10 min
T1 construct: expressed in transfected cells
Procedure: cAMP Assay in Human EP4 Transfectant HEK293 cells expressing human EP4 receptors (hEP4 cells) are maintained in DMEM containing 10% FBS and 500 μg/ml geneticin. For harvesting hEP4 cells, culture medium is aspirated and cells in 75 cm^2 flask are washed with 10 ml of phosphate buffered saline (PBS). Another 10 ml of PBS is added to the cells and incubated for 20 min at room temperature. Human EP4 cells are harvested by pipetting and centrifuged at 300×g for 4 min. Cells are resuspended in DMEM without neutral red at a density of 7×10^5 cells/ml containing 0.2 mM IBMX (PDE inhibitor), 1 nM PGE2 and test compounds in PCR-tubes, and incubated at 37° C. for 10 min. The reaction is stopped by heating at 100° C. for 10 min with thermal cycler. Concentration of cAMP in reaction mixtures is determined with SPA cAMP Kit (Amersham) or cAMP Screen™ (Applied Biosystems) according to the manufacture's instruction. Reference: Eur. J. Pharmacol. 340 (1997) 227-241 cAMP assay in human EP4 transfectant were conducted using the method described above. IC50: the concentration of the individual compound required to reduce the amount of ligand by 50%.

T1 sequence (P35408 whole entry): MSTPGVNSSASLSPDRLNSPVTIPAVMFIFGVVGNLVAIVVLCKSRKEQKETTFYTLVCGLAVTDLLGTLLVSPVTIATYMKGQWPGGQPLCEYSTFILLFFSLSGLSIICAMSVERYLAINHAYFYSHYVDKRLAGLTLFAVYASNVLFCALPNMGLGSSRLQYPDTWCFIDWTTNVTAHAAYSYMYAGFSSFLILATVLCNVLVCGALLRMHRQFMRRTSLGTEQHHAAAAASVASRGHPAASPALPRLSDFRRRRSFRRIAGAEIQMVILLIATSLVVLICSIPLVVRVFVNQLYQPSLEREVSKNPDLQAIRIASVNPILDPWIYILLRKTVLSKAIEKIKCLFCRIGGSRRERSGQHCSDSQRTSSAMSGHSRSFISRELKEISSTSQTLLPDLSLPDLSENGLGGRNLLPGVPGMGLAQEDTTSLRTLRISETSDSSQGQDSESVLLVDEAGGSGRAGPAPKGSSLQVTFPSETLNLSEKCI

Compared with Cc1ccc(CCOc2ccc(Cl)cc2C(=O)N[C@@H](C)c2ccc(C(=O)O)cc2)cc1 [EXAMPLE 12, 4-[(1S)-1-({5-CHLORO-2-[2-(4-METHYLPHENYL)ETHOXY]BENZOYL}AMINO)ETHYL]BENZOIC ACID], C[C@H](NC(=O)c1cc(Cl)ccc1OCCc1ccc(F)cc1)c1ccc(C(=O)O)cc1 [EXAMPLE 34, 4-[(1S)-1-({5-CHLORO-2-[2-(4-FLUOROPHENYL)ETHOXY]BENZOYL}AMINO)ETHYL]BENZOIC ACID] is 2-fold higher in IC50: 21 nM for the first, 41 nM for the second. The first is the more potent here.

O=C(O)c1ccc(CNC(=O)c2cc(Cl)ccc2OCCc2ccccc2)cc1 [EXAMPLE 1, 4-({[5-CHLORO-2-(2-PHENYLETHOXY-)BENZOYL]AMINO}METHYL)BENZOIC ACID] and O=C(O)c1ccc(CNC(=O)c2cc(Cl)ccc2OCCc2ccc(F)cc2)cc1 [EXAMPLE 3, 4-[({5-CHLORO-2-[2-(4-FLUOROPHENYL)ETHOXY]BENZOYL}AMINO)METHYL]BENZOIC ACID] are within 1.5-fold of each other in IC50: 149 nM for the first, 126 nM for the second.

First: C[C@H](NC(=O)c1cc(Cl)cnc1N(C)Cc1ccc(F)cc1)c1ccc(C(=O)O)cc1 [EXAMPLE 54, 4-{(1S)-1-[({5-CHLORO-2-[(4-FLUOROBENZYL)(METHYL)AMINO]PYRIDIN-3-YL}CARBONYL)AMINO]ETHYL}BENZOIC ACID]
Second: C[C@H](NC(=O)c1cc(Cl)cnc1OCc1ccc(Cl)cc1)c1ccc(C(=O)O)cc1 [EXAMPLE 40, 4-{(1S)-1-[({5-CHLORO-2-[(4-CHLOROBENZYL)OXY]PYRIDIN-3-YL}CARBONYL)AMINO]ETHYL}BENZOIC ACID]
The IC50 of the first is 1.5-fold higher: 110 nM for the first, 72 nM for the second.

Compared with C[C@H](NC(=O)c1cc(Cl)ccc1O[C@H]1CC[C@H](C)CC1)c1ccc(C(=O)O)cc1 [EXAMPLE 18, 4-[(1S)-1-({5-CHLORO-2-[(TRANS-4-METHYLCYCLOHEXYL)OXY]BENZOYL}AMINO)ETHYL]BENZOIC ACID], C[C@H](NC(=O)c1cc(Cl)ccc1O[C@H]1CC[C@@H](C)CC1)c1ccc(C(=O)O)cc1 [EXAMPLE 17, 4-[(1S)-1-({5-CHLORO-2-[(C/S4-METHYLCYCLOHEXYL)OXY]BENZOYL}AMINO)ETHYL]BENZOIC ACID] is 2-fold higher in IC50: 260 nM for the first, 510 nM for the second. The first is the more potent here.

Going from C[C@H](NC(=O)c1cc(Cl)ccc1OCC1CCCO1)c1ccc(C(=O)O)cc1 (stereo partly drawn) [EXAMPLE 49, 4-((1S)-1-{[5-CHLORO-2-(TETRAHYDROFURAN-2-YLMETHOXY)BENZOYL]AMINO}ETHYL)BENZOIC ACID] to C[C@H](NC(=O)c1cc(Cl)ccc1OCc1ccccc1Cl)c1ccc(C(=O)O)cc1 [EXAMPLE 22, 4-[(1S)-1-({5-CHLORO-2-[(2-CHLOROBENZYL)OXY]BENZOYL}AMINO)ETHYL]BENZOIC ACID], the IC50 falls from 360 nM to 13 nM (28-fold).

First: C[C@H](NC(=O)c1cc(Cl)ccc1OCc1ccc(F)cc1F)c1ccc(C(=O)O)cc1 [EXAMPLE 35, 4-[(1S)-1-({5-CHLORO-2-[(2,4-DIFLUOROBENZYL)OXY]BENZOYL}AMINO)ETHYL]BENZOIC ACID]
Second: C[C@H](NC(=O)c1cc(Cl)ccc1OCc1cc(F)ccc1F)c1ccc(C(=O)O)cc1 [EXAMPLE 32, 4-[(1S)-1-({5-CHLORO-2-[(2,5-DIFLUOROBENZYL)OXY]BENZOYL}AMINO)ETHYL]BENZOIC ACID]
The IC50 of the first is 2.2-fold higher: 110 nM for the first, 50 nM for the second.

First: C[C@H](NC(=O)c1cc(Cl)ccc1OCc1ncccc1Cl)c1ccc(C(=O)O)cc1 [EXAMPLE 47, 4-[(1S)-1-({5-CHLORO-2-[(3-CHLOROPYRIDIN-2-YL)METHOXY]BENZOYL}AMINO)ETHYL]BENZOIC ACID]
Second: C[C@H](NC(=O)c1cc(Cl)ccc1OCc1ccc(F)c(F)c1)c1ccc(C(=O)O)cc1 [EXAMPLE 33, 4-[(1S)-1-({5-CHLORO-2-[(3,4-DIFLUOROBENZYL)OXY]BENZOYL}AMINO)ETHYL]BENZOIC ACID]
The IC50 of the first is 7.6-fold higher: 480 nM for the first, 63 nM for the second.

Compared with CC(C)CCOc1ncc(Cl)cc1C(=O)N[C@@H](C)c1ccc(C(=O)O)cc1 [EXAMPLE 31, 4-[(1S)-1-({[5-CHLORO-2-(3-METHYLBUTOXY)PYRIDIN-3-YL]CARBONYL}AMINO)ETHYL]BENZOIC ACID], C[C@H](NC(=O)c1cc(Cl)ccc1OCCOc1ccccc1)c1ccc(C(=O)O)cc1 [EXAMPLE 26, 4-((1S)-1-{[5-CHLORO-2-(2-PHENOXYETHOXY)BENZOYL]AMINO}ETHYL)BENZOIC ACID] is 2.3-fold lower in IC50: 140 nM for the first, 62 nM for the second. The second is the more potent here.

With C[C@H](NC(=O)c1cc(Cl)ccc1OCc1cc(F)cc(F)c1)c1ccc(C(=O)O)cc1 [EXAMPLE 37, 4-[(1S)-1-({5-CHLORO-2-[(3,5-DIFLUOROBENZYL)OXY]BENZOYL}AMINO)ETHYL]BENZOIC ACID] the IC50 was 78 nM.
